Reference: patent US4180655A, “Nitrosourea derivatives” (Suami; Tetsuo, priority 1974, dated 1979)
Like-named read-outs stand apart in the source and are kept apart here.

Tested on: Leukemia L1210 cells
Assay: Chemotherapeutic effect of nitrosourea derivatives on leukemia L1210 in mice
Type: in vivo, mice (BDF1/BDF)
Text: Chemotherapeutic effect of a variety of the nitrosourea derivatives of the formula I according to this invention on leukemia L1210 in mice were investigated by the following method and materials.
A--BDF1 mice (about 6 week-aged; body weight: 22±1 g); each experimental group was composed of 2 male mice.
B--BDF1 mice (about 7 week-aged; body weight: 21±2 g); each experimental group was composed of 3 male mice.
C--BDF mice (about 7 week-aged; body weight: 22±2 g); each experimental group was composed of 2 male mice.
D--BDF mice (about 6 week-aged; body weight: 21±2 g); each experimental group was composed of 3 male mice.
E--BDF1 mice (about six week-aged; body weight 20±1 g); each experimental group was composed of 3 female mice.
F--BDF1 mice (about six week-aged; body weight 21±1 g); each experimental group was composed of 3 male mice.
A--Leukemia L1210 cells (2.1×10^6 cells/ 0.05 ml/mouse) were intraperitoneally inoculated.
B--Leukemia L1210 cells (1.9×10^6 cells/0.05 ml/mouse) were intraperitoneally inoculated.
C--Leukemia L1210 cells (1.2×10^6 cells/0.05 ml/mouse) were intraperitoneally inoculated.
A--The test compound was dissolved in a physiological saline solution and administered intraperitoneally at a volume of 0.1 ml/mouse. The administration was made at once/day, from 24 hours after i.p. inoculation of L1210 cells, for 3 days. The effect of test compound was assessed by mean survival days of mice, percent increase in life-span, anatomical findings involving the volume of ascites.
B--The same as that used in A except that the drug administration was continued for 5 days.
C--The same as that used in A except that the test compound was suspended in 0.5% CMC solution and that the drug administration was continued for 5 days.
D--The same as that used in A except that the test compound was dissolved in distilled water for injection purposes.
The percentage increase in life-span (ILS) was calculated as follows:
Percentage increase in life-span (ILS)=T-C/C×100
T: The mean survival days of the treated animals.
C: The mean survival days of the untreated control.

[1] = 0.5 mg/kg i.p. once/day for 3 days (procedure A, saline)
[2] = 1 mg/kg i.p. once/day for 3 days (procedure A, saline)
[3] = 2 mg/kg i.p. once/day for 3 days (procedure A, saline)
[4] = 4 mg/kg i.p. once/day for 3 days (procedure A, saline)
[5] = 8 mg/kg i.p. once/day for 3 days (procedure A, saline)
[6] = Mus musculus, L1210, ip, 72 h, 1 mg/kg i.p. once/day for 3 days (procedure A, saline), read-out: Percentage increase in life-span (ILS)
[7] = Mus musculus, L1210, ip, 72 h, 2 mg/kg i.p. once/day for 3 days (procedure A, saline), read-out: Percentage increase in life-span (ILS)
[8] = Mus musculus, L1210, ip, 72 h, 4 mg/kg i.p. once/day for 3 days (procedure A, saline), read-out: Percentage increase in life-span (ILS)
[9] = Mus musculus, L1210, ip, 72 h, 8 mg/kg i.p. once/day for 3 days (procedure A, saline), read-out: Percentage increase in life-span (ILS)
[10] = 16 mg/kg i.p. once/day for 3 days (procedure A, saline)
[11] = Mus musculus, L1210, ip, 72 h, 16 mg/kg i.p. once/day for 3 days (procedure A, saline), read-out: Percentage increase in life-span (ILS)
[12] = 6 mg/kg i.p. once/day for 3 days (procedure A, saline)
[13] = 10 mg/kg i.p. once/day for 3 days (procedure A, saline)
[14] = 20 mg/kg i.p. once/day for 3 days (procedure A, saline)
[15] = 30 mg/kg i.p. once/day for 3 days (procedure A, saline)
[16] = Mus musculus, L1210, ip, 72 h, 10 mg/kg i.p. once/day for 3 days (procedure A, saline), read-out: Percentage increase in life-span (ILS)
[17] = 200 mg/kg i.p. once/day for 5 days (procedure B, saline)
[18] = 300 mg/kg i.p. once/day for 5 days (procedure B, saline)
[19] = Mus musculus, L1210, ip, 120 h, read-out: Percentage increase in life-span (ILS)
[20] = 2.5 mg/kg i.p. once/day for 3 days (procedure A, saline)
[21] = 5 mg/kg i.p. once/day for 3 days (procedure A, saline)

Row | SMILES | Survival days, Treated (mean) [2] | Volume of ascites, Treated [2] | Survival days, Treated (mean) [3] | Volume of ascites, Treated [3] | Survival days, Treated (mean) [4] | Volume of ascites, Treated [4] | Survival days, Treated (mean) [5] | Volume of ascites, Treated [5] | ILS at 1 mg/kg [6] | ILS at 2 mg/kg [7] | ILS at 4 mg/kg [8] | ILS at 8 mg/kg [9] | Survival days, Treated (mean) [10] | Volume of ascites, Treated [10] | ILS at 16 mg/kg [11] | Survival days, Treated (mean) [13] | Volume of ascites, Treated [13] | ILS at 10 mg/kg [16] | further results
1 | O=NN(CCCl)C(=O)N[C@@H]1O[C@H](CO)[C@@H](O)[C@H](O)[C@@H]1O [Compound 2, 1-(2-chloroethyl)-3-(β-D-mannopyranosyl)-1-nitrosourea] | 13.7 days | 2.3 | 14.7 days | 1.2 | 15.0 days | 1.2 | 18.3 days | 0 | 51.9% | 63% | 66.7% | 103% | – | – | – | – | – | – | Survival days, Treated (mean) [1]: 13.0 days; Volume of ascites, Treated [1]: 3.0; ILS at 0.5 mg/kg (Mus musculus, L1210, ip, 72 h, 0.5 mg/kg i.p. once/day for 3 days (procedure A, saline), read-out: Percentage increase in life-span (ILS)): 44.4%
2 | O=NN(CCCl)C(=O)N[C@@H]1OC[C@@H](O)[C@H](O)[C@H]1O [Compound 3, 1-(2-chloroethyl)-1-nitroso-3-(β-D-xylopyranosyl)urea] | 17.0 days | 0 | > 24.0 days | 0 | > 60.0 days | 0 | > 60.0 days | 0 | 54.5% | > 118% | > 446% | > 446% | 9.0 days | 0 | -18.2% | – | – | – | –
3 | O=NN(CCCl)C(=O)N[C@H]1[C@H](O)CCC[C@@H]1O [Compound 4, 1-(2-chloroethyl)-3-(1,3/2N-dihydroxycyclohexyl)-1-nitrosourea] | – | – | 22.0 days | 0.8 | > 60.0 days | 0 | > 59.3 days | 0 | – | 114% | > 482% | > 476% | 13.0 days | 0 | 26.2% | – | – | – | –
4 | O=NN(CCCl)C(=O)N[C@H]1[C@H](O)[C@@H](O)[C@H](O)[C@@H](O)[C@@H]1O [Compound 5, 1-(2-chloroethyl)-1-nitroso-3-(1N,3,5/2,4,6-pentahydroxycyclohexyl)urea] | 12.0 days | 4.5 | 12.5 days | 4.0 | 13.0 days | 2.8 | 16.0 days | 2.5 | 23.7% | 28.9% | 34% | 64.9% | – | – | – | 15.5 days | 0 | 59.8% | Survival days, Treated (mean) [12]: 14.0 days; Volume of ascites, Treated [12]: 2.0; Survival days, Treated (mean) [14]: > 61.1 days; Volume of ascites, Treated [14]: 0; Survival days, Treated (mean) [15]: 11.6 days; Volume of ascites, Treated [15]: 0; ILS at 6 mg/kg (Mus musculus, L1210, ip, 72 h, 6 mg/kg i.p. once/day for 3 days (procedure A, saline), read-out: Percentage increase in life-span (ILS)): 44.3%; ILS at 20 mg/kg (Mus musculus, L1210, ip, 72 h, 20 mg/kg i.p. once/day for 3 days (procedure A, saline), read-out: Percentage increase in life-span (ILS)): > 530%; ILS at 30 mg/kg (Mus musculus, L1210, ip, 72 h, 30 mg/kg i.p. once/day for 3 days (procedure A, saline), read-out: Percentage increase in life-span (ILS)): 19.6%
5 | CO[C@@H]1O[C@H](C)[C@@H](O)[C@H](O)[C@H]1NC(=O)N(C)N=O [Compound 6, Methyl 2,6-dideoxy-2-(N'-methyl-N-nitrosoureido)-βD-glucopyranoside] | – | – | – | – | – | – | – | – | – | – | – | – | – | – | – | – | – | – | Survival days, Treated (mean) [17]: 15.1 days; Volume of ascites, Treated [17]: 2.0; Survival days, Treated (mean) [18]: 13.0 days; Volume of ascites, Treated [18]: 0.3; ILS at 200 mg/kg [19]: 77.6%; ILS at 300 mg/kg [19]: 52.9%
6 | O=NN(CCCl)C(=O)N[C@@H]1O[C@H](CO)[C@H](O)[C@H](O)[C@H]1O [Compound 7, 1-(2-chloroethyl)-3-(β-D-galactopyranosyl)-1-nitrosourea] | 18.5 days | 4.6 | 14.7 days | 0.8 | > 47.0 days | 0 | > 47.0 days | 0 | 98.9% | 58.1% | > 405% | > 405% | – | – | – | 18.7 days | 0 | 101% | –
7 | O=NN(CCCl)C(=O)N[C@@H]1O[C@H](CO)[C@@H](O[C@@H]2O[C@H](CO)[C@H](O)[C@H](O)[C@H]2O)[C@H](O)[C@H]1O [Compound 8, 1-(2-chloroethyl)-3-(β-D-lactosyl)-1-nitrosourea] | – | – | – | – | – | – | – | – | – | – | – | – | – | – | – | > 47.0 days | 0 | > 384% | Survival days, Treated (mean) [20]: 12.5 days; Volume of ascites, Treated [20]: 3.3; Survival days, Treated (mean) [21]: 14.3 days; Volume of ascites, Treated [21]: 1.0; ILS at 2.5 mg/kg (Mus musculus, L1210, ip, 72 h, 2.5 mg/kg i.p. once/day for 3 days (procedure A, saline), read-out: Percentage increase in life-span (ILS)): 28.9%; ILS at 5 mg/kg (Mus musculus, L1210, ip, 72 h, 5 mg/kg i.p. once/day for 3 days (procedure A, saline), read-out: Percentage increase in life-span (ILS)): 47.4%
8 | O=NN(CCCl)C(=O)N[C@@H](CO)[C@@H](O)[C@H](O)[C@H](O)CO [Compound 9, N-carbamoyl-N'-(2-chloroethyl)-N'-nitroso-D-glucosaminol] | – | – | – | – | – | – | 18.0 days | 0 | – | – | – | 68.2% | > 53.7 days | 0 | > 402% | – | – | – | –
9 | COc1cccc2c1C(=O)c1c(O)c3c(c(O)c1C2=O)C[C@@](O)(C(C)=O)C[C@@H]3O[C@H]1C[C@H](N)[C@H](O)[C@H](C)O1 [Compound 10, Daunomycin, reference compound] | – | – | – | – | – | – | – | – | – | – | – | – | – | – | – | – | – | – | Survival days, Treated (mean) (0.25 mg/kg i.p. once/day for 5 days (procedure C, 0.5% CMC)): 10.2 days; Survival days, Treated (mean) (0.5 mg/kg i.p. once/day for 5 days (procedure C, 0.5% CMC)): 12.8 days; Survival days, Treated (mean) (1 mg/kg i.p. once/day for 5 days (procedure C, 0.5% CMC)): 12.6 days; Survival days, Treated (mean) (2 mg/kg i.p. once/day for 5 days (procedure C, 0.5% CMC)): 13.6 days; ILS at 0.25 mg/kg (Mus musculus, L1210, ip, 120 h, 0.25 mg/kg i.p. once/day for 5 days (procedure C, 0.5% CMC), read-out: Percentage increase in life-span (ILS)): 20%; ILS at 0.5 mg/kg (Mus musculus, L1210, ip, 120 h, 0.5 mg/kg i.p. once/day for 5 days (procedure C, 0.5% CMC), read-out: Percentage increase in life-span (ILS)): 50.6%; ILS at 1 mg/kg (Mus musculus, L1210, ip, 120 h, 1 mg/kg i.p. once/day for 5 days (procedure C, 0.5% CMC), read-out: Percentage increase in life-span (ILS)): 48.3%; ILS at 2 mg/kg (Mus musculus, L1210, ip, 120 h, 2 mg/kg i.p. once/day for 5 days (procedure C, 0.5% CMC), read-out: Percentage increase in life-span (ILS)): 60%
